The values below come from patent publication US20240077423A1, “A TRANSCRIPTIONAL REGULATOR SPECIFICALLY RESPONDING TO D-2-HYDROXYGLUTARATE AND APPLICATION THEREOF” (SHANDONG UNIVERSITY, priority 2021, published 2024).

Data set [1] has as its system binding of DhdR to dhdO. Description: Analysis of DhdR effector by electrophoretic mobility shift assays. Details: species or system Achromobacter denitrificans NBRC 15125. Conditions: 40 mM compound, 70 nM DhdR, dhdO target DNA, EMSA, FIG. 2. As to the method: DhdR is incubated with different compounds (D-2-HG, L-2-HG, D-malate, D-lactate, glutarate, 2-ketoglutarate, or pyruvate) respectively. Then, the target DNA fragment dhdO is added. The influence on the binding capacity of DhdR and the target DNA fragment dhdO in the presence of the different compounds is analyzed through electrophoresis separation, staining, and imaging.
(§1) The dhdO nucleotide fragment obtained in step (2) above was diluted to 100 nM using binding buffer, and the purified DhdR protein was diluted to 2000 nM. 70 nM purified DhdR protein was first incubated with 40 mM different compounds (D-2-HG, L-2-HG, D-malate, D-lactate, glutarate, 2-ketoglutarate, or pyruvate) at 30° C. for 15 minutes in 18 μL binding buffer. Subsequently, 2 μL of 100 nM dhdO was added and incubated at 30° C. for another 30 min. 10 μL of the sample was analyzed by electrophoresis with 6% native polyacrylamide at 170 V for 45 min on ice. The gel was then stained with SYBR Green I for 30 min avoiding light and photographed by gel imager. […] DhdR can bind to dhdO in the absence of D-2-HG. However, when D-2-HG is present, DhdR will be dissociated from dhdO.

For data set [2], the target named is T1, DhdR (Achromobacter denitrificans NBRC 15125).
T1 chain: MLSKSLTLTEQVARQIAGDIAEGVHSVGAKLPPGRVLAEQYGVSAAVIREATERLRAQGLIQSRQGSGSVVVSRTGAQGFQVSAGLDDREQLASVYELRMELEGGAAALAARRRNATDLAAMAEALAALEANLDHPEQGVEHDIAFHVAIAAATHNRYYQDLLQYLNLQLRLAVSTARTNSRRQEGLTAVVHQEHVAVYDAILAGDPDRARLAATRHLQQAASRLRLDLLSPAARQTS
Description: EMSA; 70 nM DhdR, 10 nM dhdO, 30 C; 40 mM D-2-HG inhibits binding; L-2-HG, D-malate, D-lactate, glutarate, 2-ketoglutarate, pyruvate do not. Particulars: tags: His6 (pETDuet-1, E. coli BL21(DE3)). The procedure:
as §1

The target of data set [3] is T1, DhdR. Description: AlphaScreen-type bead luminescence, HBS-P pH 7.4; D-2-HG dissociates complex, LOD 0.8 uM, range about 2-50 uM. Particulars: tags: His6 (pETDuet-1, E. coli BL21(DE3)); label: 5'-biotin. The procedure:
According to the method of detecting the luminescence signal described in (2), a gradient D-2-HG solution dissolved in HBS-P buffer was used and mixed with 5 μL of 1 nM biotinylated dhdO fragment, 0.3 nM DhdR protein, donor beads, and acceptor beads. The luminescence signal was detected to plot the dose-response curves.
The combination of the 1 nM biotinylated dhdO fragment, 0.3 nM DhdR protein, 20 μg/mL donor beads, and 20 μg/mL acceptor beads was named as D-2-HG biosensor BD2HG-0, with a limit of detection of 0.8 μM and a detection range of about 2-50 μM.
(In Alpha technology, singlet oxygen from a donor bead excites a nearby acceptor bead.)

In data set [4] the target is T1, DhdR. The data set is described as follows: AlphaScreen-type bead luminescence, HBS-P pH 7.4; D-2-HG dissociates complex, LOD 0.08 uM, range about 0.3-20 uM. Conditions: tags: His6 (pETDuet-1, E. coli BL21(DE3)); label: 5'-biotin. The procedure: 5 μL biotinylated dhdO-1 fragment, 5 μL DhdR protein and 5 μL solution containing D-2-HG were added into a white 384-well plate, mixed evenly by the oscillation function of a microplate reader, and incubated in dark at room temperature for 30 minutes. Then, 5 μL acceptor beads (20 μg/mL) were added and incubated in dark at room temperature for 30 minutes. Finally, 5 μL donor beads (20 μg/mL) were added and incubated in dark at room temperature for 60 minutes. The luminescence signal was measured by EnSight Multimode Plate Reader. The excitation wavelength was 680 nm and the detection wavelength was 520-620 nm. The background signal without a D-2-HG biosensor was deducted at each emission wavelength.
According to the method of detecting the luminescence signal described in (2), a gradient D-2-HG solution dissolved in HBS-P buffer was used and mixed with 5 μL of 1 nM biotinylated dhdO-1 fragment, 0.3 nM DhdR protein, donor beads, and acceptor beads. The luminescence signal was detected to plot the dose-response curves.

Entries after “also recorded” stand apart in the source; their conditions may differ.

`O=C(O)C[C@@H](O)C(=O)O` [D-malate]: in data set [1], the “effect on the binding of DhdR to dhdO” value was “could not interfere with the binding of DhdR to dhdO”. As for `O=C(O)CCC(=O)C(=O)O` [2-ketoglutarate], in data set [1], the “effect on the binding of DhdR to dhdO” value was “could not interfere with the binding of DhdR to dhdO”.

As to `O=C(O)CC[C@H](O)C(=O)O` [L-2-HG, L-2-hydroxyglutarate], the “effect on the binding of DhdR to dhdO” value in data set [1] was “could not interfere with the binding of DhdR to dhdO”. Still for that read-out and setting: the same measure for `O=C(O)CC[C@@H](O)C(=O)O` [D-2-HG, D-2-Hydroxyglutarate]: “prevents the binding of DhdR and the target DNA fragment dhdO; also recorded: could inhibit the binding of DhdR to dhdO”; for `C[C@@H](O)C(=O)O` [D-lactate]: “could not interfere with the binding of DhdR to dhdO”.

B1: dhdO (dsDNA)
DNA 1: GAGTCGCGGCGGCGCGCCGGATCCGGGCTGTCATTGTCAAAAGTTATCAGATAACCTGAAAAGTAGGCCTATAATCGGCGC
DNA 2: GCGCCGATTATAGGCCTACTTTTCAGGTTATCTGATAACTTTTGACAATGACAGCCCGGATCCGGCGCGCCGCCGCGACTC
Take B1: the binding result in data set [2] is recorded as “binds”.

B2: biotinylated dhdO (dsDNA)
DNA 1: GAGTCGCGGCGGCGCGCCGGATCCGGGCTGTCATTGTCAAAAGTTATCAGATAACCTGAAAAGTAGGCCTATAATCGGCGC
DNA 2: GCGCCGATTATAGGCCTACTTTTCAGGTTATCTGATAACTTTTGACAATGACAGCCCGGATCCGGCGCGCCGCCGCGACTC
B2: in data set [3], the binding result is recorded as “binds”.

B3: biotinylated dhdO-1 (dsDNA)
DNA 1: GAGTCGCGGCGGCGCGCCGGATCCGGGCTGTCATTGTCAAAATTTATCAGATAACCTGAAAAGTAGGCCTATAATCGGCGC
DNA 2: GCGCCGATTATAGGCCTACTTTTCAGGTTATCTGATAAATTTTGACAATGACAGCCCGGATCCGGCGCGCCGCCGCGACTC
For the molecule B3, the binding result in data set [4] is listed as “binds”.
